# Measurements published in ChEMBL document CHEMBL1147519, “N-[18F]fluoroethylpiperidin-4-ylmethyl butyrate: a novel radiotracer for quantifying brain butyrylcholinesterase activity by positron emission tomography” (Bioorg Med Chem Lett, 2004).
# How the values were obtained:
# [1] = Partition coefficient (logD); type: physicochemical; settings: octanol/water
# Homo sapiens = species on record: Homo sapiens; assay: The estimated hydrolysis rate in the human cerebral cortex; type: functional
# [2] = Partition coefficient (logD) (octanol/phosphate buffer); type: physicochemical
# [3] = target: Cholinesterase (Homo sapiens) (UniProt P06276); assay: Specificity to butyrylcholinesterase
# Sequence of Cholinesterase (Homo sapiens) (P06276 whole entry): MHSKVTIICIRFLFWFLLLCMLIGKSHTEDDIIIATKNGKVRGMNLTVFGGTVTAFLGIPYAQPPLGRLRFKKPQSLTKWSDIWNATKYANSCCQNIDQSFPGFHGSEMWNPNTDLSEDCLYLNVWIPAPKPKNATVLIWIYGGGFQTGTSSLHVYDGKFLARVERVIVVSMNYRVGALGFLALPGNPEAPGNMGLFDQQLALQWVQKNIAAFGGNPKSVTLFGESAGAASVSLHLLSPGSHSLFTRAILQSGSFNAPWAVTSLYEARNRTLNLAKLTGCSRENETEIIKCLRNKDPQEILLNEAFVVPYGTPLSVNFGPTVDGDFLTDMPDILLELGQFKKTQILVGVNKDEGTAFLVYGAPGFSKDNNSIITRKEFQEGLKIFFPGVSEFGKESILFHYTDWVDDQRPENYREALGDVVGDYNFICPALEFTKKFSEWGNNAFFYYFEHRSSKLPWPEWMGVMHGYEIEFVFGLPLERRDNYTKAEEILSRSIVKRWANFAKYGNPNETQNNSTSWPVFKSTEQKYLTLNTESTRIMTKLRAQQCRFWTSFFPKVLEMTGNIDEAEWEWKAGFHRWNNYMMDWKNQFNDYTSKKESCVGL
SMILES,logD [1],Total rate (Homo sapiens) [g⁻¹ min⁻¹ mL⁻¹],logD [2],Specificity [3] [%]
CCCC(=O)OC1CCN(C)CC1,0.21,0.033,-2.2,98
CCC(=O)OC1CCN(C)CC1,-0.22,0.035,-2.2,
CC(=O)OC1CCN(C)CC1,-0.3,0.16,-2.2,
CCCC(=O)OCC1CCN(CCF)CC1,0.62,0.2,-1.3,98
